Reference: PubChem BioAssay (NCI)
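The compound was tested at five concentrations on cells cultured in 96-well plates, with a 48-hour exposure period. TGI marks complete inhibition of growth.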

Key:
Assay in all cases: NCI tumour cell line growth inhibition, 48 h
786-0 renal = system: 786-0 renal
A498 renal = system: A498 renal
A549 NSCLC = system: A549 NSCLC
ACHN renal = system: ACHN renal
BT-549 breast = system: BT-549 breast
CAKI-1 renal = system: CAKI-1 renal
COLO 205 colon = system: COLO 205 colon
DU-145 prostate = system: DU-145 prostate
EKVX NSCLC = system: EKVX NSCLC
HCT-116 colon = system: HCT-116 colon
HCT-15 colon = system: HCT-15 colon
HL-60(TB) leukemia = system: HL-60(TB) leukemia
HOP-62 NSCLC = system: HOP-62 NSCLC
HOP-92 NSCLC = system: HOP-92 NSCLC
HS 578T breast = system: HS 578T breast
HT29 colon = system: HT29 colon
IGROV1 ovarian = system: IGROV1 ovarian
K-562 leukemia = system: K-562 leukemia
KM12 colon = system: KM12 colon
LOX IMVI melanoma = system: LOX IMVI melanoma
M14 melanoma = system: M14 melanoma
MALME-3M melanoma = system: MALME-3M melanoma
MCF7 breast = system: MCF7 breast
MDA-MB-231 breast = system: MDA-MB-231 breast
MDA-MB-435 = system: MDA-MB-435
MDA-N = system: MDA-N
MOLT-4 leukemia = system: MOLT-4 leukemia
NCI-H226 lung = system: NCI-H226 lung
NCI-H23 lung = system: NCI-H23 lung
NCI-H522 lung = system: NCI-H522 lung
NCI/ADR-RES ovarian = system: NCI/ADR-RES ovarian
OVCAR-3 ovarian = system: OVCAR-3 ovarian
OVCAR-4 ovarian = system: OVCAR-4 ovarian
OVCAR-5 ovarian = system: OVCAR-5 ovarian
OVCAR-8 ovarian = system: OVCAR-8 ovarian
PC-3 prostate = system: PC-3 prostate
RPMI-8226 leukemia = system: RPMI-8226 leukemia
RXF 393 renal = system: RXF 393 renal
SF-268 CNS = system: SF-268 CNS
SF-295 CNS = system: SF-295 CNS
SK-MEL-2 melanoma = system: SK-MEL-2 melanoma
SK-MEL-28 melanoma = system: SK-MEL-28 melanoma
SK-MEL-5 melanoma = system: SK-MEL-5 melanoma
SK-OV-3 ovarian = system: SK-OV-3 ovarian
SN12C renal = system: SN12C renal
SNB-19 CNS = system: SNB-19 CNS
SNB-75 CNS = system: SNB-75 CNS
SW-620 colon = system: SW-620 colon
T-47D breast = system: T-47D breast
TK-10 renal = system: TK-10 renal
U251 CNS = system: U251 CNS
UACC-62 melanoma = system: UACC-62 melanoma
UO-31 renal = system: UO-31 renal
CCRF-CEM leukemia = system: CCRF-CEM leukemia
HCC-2998 colon = system: HCC-2998 colon
NCI-H460 lung = system: NCI-H460 lung
SF-539 CNS = system: SF-539 CNS
SR leukemia = system: SR leukemia
UACC-257 melanoma = system: UACC-257 melanoma

`O=C(O)CC(Sc1ccccc1)c1ccccc1` (stereo not given) gave a TGI (786-0 renal) greater than 100 µM, a TGI (A498 renal) greater than 100 µM and a TGI (A549 NSCLC) greater than 100 µM. For the same compound, the TGI (ACHN renal) was greater than 100 µM, the TGI (BT-549 breast) was greater than 100 µM and the TGI (CAKI-1 renal) was greater than 100 µM. For the same compound, the TGI (COLO 205 colon) was greater than 100 µM, the TGI (DU-145 prostate) was greater than 100 µM and the TGI (EKVX NSCLC) was greater than 100 µM. It also gave a TGI (HCT-116 colon) greater than 100 µM, a TGI (HCT-15 colon) greater than 100 µM and a TGI (HL-60(TB) leukemia) greater than 100 µM. It also gave a TGI (HOP-62 NSCLC) greater than 100 µM, a TGI (HOP-92 NSCLC) greater than 100 µM and a TGI (HS 578T breast) greater than 100 µM. The TGI (HT29 colon) was greater than 100 µM, the TGI (IGROV1 ovarian) was greater than 100 µM and the TGI (K-562 leukemia) was greater than 100 µM. For the same compound, the TGI (KM12 colon) was greater than 100 µM, the TGI (LOX IMVI melanoma) was greater than 100 µM and the TGI (M14 melanoma) was greater than 100 µM. For the same compound, the TGI (MALME-3M melanoma) was greater than 100 µM, the TGI (MCF7 breast) was greater than 100 µM and the TGI (MDA-MB-231 breast) was greater than 100 µM. For the same compound, the TGI (MDA-MB-435) was greater than 100 µM, the TGI (MDA-N) was greater than 100 µM and the TGI (MOLT-4 leukemia) was greater than 100 µM. It also gave a TGI (NCI-H226 lung) greater than 100 µM, a TGI (NCI-H23 lung) greater than 100 µM and a TGI (NCI-H522 lung) greater than 100 µM. It also gave a TGI (NCI/ADR-RES ovarian) greater than 100 µM, a TGI (OVCAR-3 ovarian) greater than 100 µM and a TGI (OVCAR-4 ovarian) greater than 100 µM. For the same compound, the TGI (OVCAR-5 ovarian) was greater than 100 µM, the TGI (OVCAR-8 ovarian) was greater than 100 µM and the TGI (PC-3 prostate) was greater than 100 µM. For the same compound, the TGI (RPMI-8226 leukemia) was greater than 100 µM, the TGI (RXF 393 renal) was greater than 100 µM and the TGI (SF-268 CNS) was greater than 100 µM. It also gave a TGI (SF-295 CNS) greater than 100 µM, a TGI (SK-MEL-2 melanoma) greater than 100 µM and a TGI (SK-MEL-28 melanoma) greater than 100 µM. It also gave a TGI (SK-MEL-5 melanoma) greater than 100 µM, a TGI (SK-OV-3 ovarian) greater than 100 µM and a TGI (SN12C renal) greater than 100 µM. For the same compound, the TGI (SNB-19 CNS) was greater than 100 µM, the TGI (SNB-75 CNS) was greater than 100 µM and the TGI (SW-620 colon) was greater than 100 µM. The TGI (T-47D breast) was greater than 100 µM, the TGI (TK-10 renal) was greater than 100 µM and the TGI (U251 CNS) was greater than 100 µM. The TGI (UACC-62 melanoma) was greater than 100 µM and the TGI (UO-31 renal) was greater than 100 µM.
`COC(=O)[C@H](CC(C)C)Nc1c(O)c2c(c(O)c1Cl)C(=O)C=CC2=O` gave a TGI (786-0 renal) greater than 10 µM, a TGI (A498 renal) greater than 10 µM and a TGI (A549 NSCLC) greater than 10 µM. It also gave a TGI (ACHN renal) greater than 10 µM, a TGI (BT-549 breast) greater than 10 µM and a TGI (CAKI-1 renal) greater than 10 µM. It also gave a TGI (CCRF-CEM leukemia) greater than 10 µM, a TGI (COLO 205 colon) greater than 10 µM and a TGI (DU-145 prostate) greater than 10 µM. The TGI (EKVX NSCLC) was greater than 10 µM, the TGI (HCC-2998 colon) was greater than 10 µM and the TGI (HCT-116 colon) was 5.35 µM. For the same compound, the TGI (HCT-15 colon) was greater than 10 µM, the TGI (HL-60(TB) leukemia) was greater than 10 µM and the TGI (HOP-62 NSCLC) was greater than 10 µM. For the same compound, the TGI (HOP-92 NSCLC) was greater than 10 µM, the TGI (HS 578T breast) was greater than 10 µM and the TGI (HT29 colon) was 9.41 µM. It also gave a TGI (IGROV1 ovarian) greater than 10 µM, a TGI (K-562 leukemia) greater than 10 µM and a TGI (KM12 colon) greater than 10 µM. For the same compound, the TGI (LOX IMVI melanoma) was 5.74 µM, the TGI (M14 melanoma) was greater than 10 µM and the TGI (MALME-3M melanoma) was greater than 10 µM. The TGI (MDA-MB-231 breast) was greater than 10 µM, the TGI (MDA-MB-435) was greater than 10 µM and the TGI (MDA-N) was greater than 10 µM. For the same compound, the TGI (MOLT-4 leukemia) was greater than 10 µM, the TGI (NCI-H226 lung) was greater than 10 µM and the TGI (NCI-H23 lung) was greater than 10 µM. For the same compound, the TGI (NCI-H460 lung) was greater than 10 µM, the TGI (NCI-H522 lung) was greater than 10 µM and the TGI (NCI/ADR-RES ovarian) was greater than 10 µM. For the same compound, the TGI (OVCAR-3 ovarian) was 6 µM, the TGI (OVCAR-4 ovarian) was greater than 10 µM and the TGI (OVCAR-5 ovarian) was greater than 10 µM. It also gave a TGI (OVCAR-8 ovarian) greater than 10 µM, a TGI (PC-3 prostate) greater than 10 µM and a TGI (RPMI-8226 leukemia) greater than 10 µM. The TGI (RXF 393 renal) was greater than 10 µM, the TGI (SF-268 CNS) was greater than 10 µM and the TGI (SF-295 CNS) was greater than 10 µM. It also gave a TGI (SF-539 CNS) greater than 10 µM, a TGI (SK-MEL-2 melanoma) greater than 10 µM and a TGI (SK-MEL-28 melanoma) greater than 10 µM. For the same compound, the TGI (SK-MEL-5 melanoma) was greater than 10 µM, the TGI (SK-OV-3 ovarian) was greater than 10 µM and the TGI (SN12C renal) was greater than 10 µM. For the same compound, the TGI (SNB-19 CNS) was greater than 10 µM, the TGI (SNB-75 CNS) was greater than 10 µM and the TGI (SR leukemia) was greater than 10 µM. For the same compound, the TGI (SW-620 colon) was greater than 10 µM, the TGI (T-47D breast) was greater than 10 µM and the TGI (TK-10 renal) was greater than 10 µM. It also gave a TGI (U251 CNS) greater than 10 µM, a TGI (UACC-257 melanoma) greater than 10 µM and a TGI (UACC-62 melanoma) greater than 10 µM.
